Laboratory results as given in patent US20240398767A1, “INHIBITORS OF THE MTDH-SND1 PROTEIN COMPLEX FOR CANCER THERAPY” (The Trustees of Princeton University, priority 2021, published 2024).

How the values were obtained:
MTDH-SND1 interaction = molecular target: T1, MTDH-SND1 interaction (Homo sapiens, UniProt Q7KZF4); test: Cell-free split-luciferase (Split-luc) assay, SND1-NLuc + CLuc-MTDH; assay type: biochemical; conditions: for IC50: split-luc assay in various concentrations
T1 construct: made in house; host or cells: HEK293T cells, transient transfection of pcDNA3.1 plasmids; crude cleared lysates, each fusion expressed separately and the lysates pre-mixed
Excerpt: To generate a luciferase-based screening system, firefly luciferase was split into N- and C-terminals according to previous studies^21-23. Both N- and C-terminal domains alone have almost undetectable luciferase activity (FIG. 10A). Next, the two fragments were fused to SND1 and MTDH interaction domains respectively to generate SND1-NLuc and CLuc-MTDH (Split-luc) (FIG. 10A, left, and Table 3). […] However, when SND1-NLuc+CLuc-MTDH were co-expressed, N- and C-terminal domains of the luciferase fragments were brought close to each other due to the interaction between SND1 and MTDH, and substantial luciferase activity was reconstituted (FIG. 3A, left and FIG. 10A).
(§1) Luciferase-based screening. Seed HEK293T cells on 3×15 cm dish at 18-24 hr before transfection with 7-8×10^6 cells per dish targeting 70-80% confluence when start transfection. 20 μg of pCDNA3.1-SND1-NLuc, pCDNA3.1-CLuc-MTDH, or 2 μg of pCDNA3.1-NLuc-CLuc plasmids that described above were transfected to each dish. 72 hr after transfection the cells were lysed with 5 ml of luciferase lysis buffer (2 mM EDTA, 20 mM DTT, 10% glycerol, 1% Triton X-100, 25 mM Tris base, adjusted to pH7.8 with H3PO4) at 4° C. for 20 min. The protein lysates were centrifuged at 13,000 rpm for 10 min, and the supernatant were collected.
For small chemical compound screening, white, flat-bottom, solid 384-well plates were used. Compounds were added into each well as 0.1 μl of 10 mM DMSO solution (or same amount of DMSO, serve as control). The first and last columns were free, and MTDH wild type (PNSDWNAPAEEWGNW) or mutant (PNSDANAPAEEAGNW) peptides were added as positive and negative controls right before screening. Same amount of MTDH-CLuc and SND1-NLuc were pre-mixed at 4° C. for 30 min to generate split-luc. 5 μl of split- or linked-luc was added into each well. 15 μl of luciferase assay buffer (25 mM Glycylglycine pH 7.8, 15 mM K3PO4 pH 7.8, 15 mM MgSO4, 4 mM EGTA, 2 mM ATP added just before use, 10 mM DTT added just before use and 1 mM D-Luciferin added just before use) was then added into each well to get a 20 μl reaction system with 50 μM of compounds (peptides) in each well. The plates were incubated at 4° C. for 1 hr and luciferase activity at each well was measured.
The inhibitory efficiency of each compound was calculated as following: (signal at DMSO well−signal at compound well)/signal at DMSO well. MTDH wild type or mutant peptide in each plate was served as positive and negative controls to monitor the data quality of each plate.

[1] = molecular target: T2, MTDH-SND1 interaction: SND1-NLuc (human SND1 16-339aa fused via 3x GGGS linker to N-terminal firefly luciferase 1-416aa) + CLuc-MTDH (C-terminal firefly luciferase 398-550aa fused via 3x GGGS linker to human MTDH 386-407aa) (Homo sapiens, UniProt Q7KZF4); test: Cell-free split-luciferase assay of MTDH-SND1 interaction disruption, multiple doses (FIG. 3E); assay type: binding; conditions: cell free (HEK293T lysates), curves fit, read-out: MTDH-SND1 interaction (split-luciferase) SND1-NLuc + CLuc-MTDH interaction domains IC50
T2 construct: CLuc (398-550)-GGGS linker-MTDH (386-407) with HA tag; expressed in HEK293T; cell-free split-luciferase complementation

4TO7 lung metastases = test: Established 4TO7 lung macrometastases; assay type: in vivo, Balb/C females
Protocol: For FIGS. 7A-7D, 2 k 4TO7 cells were injected into Balb/C females. 2 weeks after the injections, the mice were randomized based on lung metastasis that indicated by BLI, and were divided into four groups followed by vehicle, paclitaxel (Pac), and C26-A6 treatment alone or in combination. For Pac, the mice were treated with 20 mg/kg of Pac twice per week for the first two week and then once per week after that, For C26-A6, the mice were treated with 15 mg/kg of C26-A6 5 days per week. n=6 mice per group. Data represent mean±SEM.
FIG. 7A, Representative mice right before the treatment (week 2) and at week 10 are shown.
FIG. 7B, The BLI signal was quantified at week 2. Significance determined by one-way ANOVA analysis with Dunnett's test for multiple comparisons.
FIG. 7C, The metastasis progression of each individual is shown.
FIG. 7D, Survival rate in each group was analyzed. Significance determined by two-sided Log-rank test.
Lastly, to mimic the clinical scenario of adjuvant chemotherapy following surgical removal of the primary tumors, SCP28 mammary tumors were removed when they reached 5 mm in diameter, the mice were then randomly separated into four groups and subjected to the different treatment regimens as above. […] The mice were then treated with vehicle or paclitaxel and C26-A6 alone or in combination, and the metastasis progression was monitored by BLL.

[2] = molecular target: T3, Linked-luc (NLuc and CLuc of firefly luciferase fused together) (Photinus pyralis, UniProt P08659, INS416[…]); test: Linked-luciferase (Linked-luc) counter screen, cell free; assay type: biochemical; conditions: 50 μM peptide
T3 construct: made in house; host or cells: HEK293T cells, transient transfection of pcDNA3.1-NLuc-CLuc; crude cleared lysate
Excerpt: The interaction between SND1-NLuc and CLuc-MTDH was also validated with co-immunoprecipitation (Co-IP) experiments (FIG. 10B). In the presence of the compounds (inhibitors) that block MTDH-SND1 interaction, the reconstitution of luciferase activity was expected to be reduced (FIG. 3A). Meanwhile, considering the possibility that compounds capable of directly inhibiting the enzymatic activity of luciferase could also result in lower luciferase signal without any blocking effect on MTDH-SND1 interaction, Linked-luc that directly fuse NLuc and CLuc together was generated to be used in counter screening (FIG. 3A, right, and Table 3).
as §1, with “The protein lysates were centrifuged at 13,000 rpm for 10 min, and the supernatant were collected.” left out
For small chemical compound screening, white, flat-bottom, solid 384-well plates were used. […] The plates were incubated at 4° C. for 1 hr and luciferase activity at each well was measured.

T1 sequence (Q7KZF4 with tags, fused parts or gaps): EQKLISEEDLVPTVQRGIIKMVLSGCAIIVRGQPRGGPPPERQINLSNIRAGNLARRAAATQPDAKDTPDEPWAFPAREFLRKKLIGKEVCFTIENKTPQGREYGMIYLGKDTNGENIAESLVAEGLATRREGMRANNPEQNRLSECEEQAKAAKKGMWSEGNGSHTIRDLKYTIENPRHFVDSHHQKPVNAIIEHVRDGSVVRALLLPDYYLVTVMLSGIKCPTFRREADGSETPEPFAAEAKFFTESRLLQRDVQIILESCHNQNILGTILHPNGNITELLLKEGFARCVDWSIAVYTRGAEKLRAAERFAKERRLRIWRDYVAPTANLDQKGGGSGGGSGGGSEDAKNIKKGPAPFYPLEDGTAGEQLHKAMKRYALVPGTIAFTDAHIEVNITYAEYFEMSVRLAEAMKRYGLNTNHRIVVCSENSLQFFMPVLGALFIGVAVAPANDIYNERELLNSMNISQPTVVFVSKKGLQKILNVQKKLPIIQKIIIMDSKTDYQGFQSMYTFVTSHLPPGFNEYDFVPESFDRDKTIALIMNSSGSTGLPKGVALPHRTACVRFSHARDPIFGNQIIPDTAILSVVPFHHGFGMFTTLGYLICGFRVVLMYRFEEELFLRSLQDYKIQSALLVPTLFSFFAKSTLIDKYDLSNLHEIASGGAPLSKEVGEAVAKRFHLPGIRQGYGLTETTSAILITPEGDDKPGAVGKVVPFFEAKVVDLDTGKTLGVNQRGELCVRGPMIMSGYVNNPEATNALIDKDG
T2 sequence (Q7KZF4 with tags, fused parts or gaps): as above
T2 sequence (Q86UE4 386-407 partner): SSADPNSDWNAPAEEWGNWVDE
T3 sequence (P08659 with tags, fused parts or gaps INS416[withheld]): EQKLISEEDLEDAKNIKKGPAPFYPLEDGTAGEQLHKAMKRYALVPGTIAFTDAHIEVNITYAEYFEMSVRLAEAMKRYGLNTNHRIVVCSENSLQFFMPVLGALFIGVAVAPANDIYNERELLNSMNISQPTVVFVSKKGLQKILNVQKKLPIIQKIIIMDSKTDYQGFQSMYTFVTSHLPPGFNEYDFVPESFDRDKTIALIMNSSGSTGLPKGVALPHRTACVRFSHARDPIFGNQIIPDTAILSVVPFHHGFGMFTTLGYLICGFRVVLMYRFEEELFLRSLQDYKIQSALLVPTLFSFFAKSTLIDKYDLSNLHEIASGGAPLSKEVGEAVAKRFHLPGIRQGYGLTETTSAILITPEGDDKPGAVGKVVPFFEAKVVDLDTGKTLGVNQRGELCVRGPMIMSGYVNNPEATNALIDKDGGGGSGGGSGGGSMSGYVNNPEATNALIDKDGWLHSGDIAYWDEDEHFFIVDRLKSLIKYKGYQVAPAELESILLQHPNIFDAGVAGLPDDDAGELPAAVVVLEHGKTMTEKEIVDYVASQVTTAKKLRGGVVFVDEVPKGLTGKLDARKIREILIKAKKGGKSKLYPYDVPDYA

COc1ccc(Cl)cc1S(=O)(=O)Nc1cccn2c(C3CCC3)nnc12 [Analog C26]
IC50 (MTDH-SND1 interaction): < 20 µM

COc1ccc(NC(=O)N2CCc3c(C(=O)NC4CCN(C)CC4)cccc32)cc1 [Analog C32]
IC50 (MTDH-SND1 interaction): < 20 µM

COc1ccc(Cl)cc1S(=O)(=O)Nc1cccn2cnnc12 [Compound C26-A1]
IC50 [1]: 8.6 µM

COc1ccc(Cl)cc1S(=O)(=O)Nc1cccn2ncnc12 [Compound C26-A2]
IC50 [1]: 9.4 µM

COc1ccc(Cl)cc1S(=O)(=O)Nc1cccn2nc(C)nc12 [Compound C26-A6]
IC50 [1]: 2.4 µM

COc1ccc(Cl)cc1S(=O)(=O)Nc1cccn2c(C3CCC3)nnc12 [Compound C26]
IC50 [1]: 14.9 µM

COc1ccc(NC(=O)N2CCc3c(C(=O)NC4CCN(C5CC5)CC4)cccc32)cc1 [Compound C32-A2]
IC50 [1]: 14.5 µM

CNC(=O)c1cccc2c1CCN2C(=O)Nc1ccc(OC)cc1 [Compound C32-A4]
IC50 [1]: 4.9 µM

COc1ccc(NC(=O)N2CCc3c(C(=O)N(C)C)cccc32)cc1 [Compound C32-A5]
IC50 [1]: 4.6 µM

COc1ccc(NC(=O)N2CCc3c(C(=O)NC4CCN(C)CC4)cccc32)cc1 [Compound C32]
IC50 [1]: 51.1 µM

CC(=O)O[C@H]1C(=O)[C@@]2(C)[C@H]([C@H](OC(=O)c3ccccc3)[C@]3(O)C[C@H](OC(=O)[C@H](O)[C@@H](NC(=O)c4ccccc4)c4ccccc4)C(C)=C1C3(C)C)[C@]1(OC(C)=O)CO[C@@H]1C[C@@H]2O [paclitaxel, reference compound]
metastatic growth (BLI) (4TO7 lung metastases; Pac 20 mg/kg, C26-A6 15 mg/kg 5 days per week): slowed down metastatic growth | metastasis shrinkage (4TO7 lung metastases; six mice per group): did not result in metastasis shrinkage

PNSDANAPAEEAGNW [MTDH-MT, reference compound]
linked-luc activity [2]: not affected | split-luc activity (MTDH-SND1 interaction; 50 μM peptide): but not the mutant significantly inhibited split-luc activity
